{
  "source": "paper PMC3145970",
  "about": "“Specific CLK Inhibitors from a Novel Chemotype for Regulation of Alternative Splicing” (Chemistry & Biology, 2011)",
  "system": "flTF and asHTF mRNA in HMEC-1 cells",
  "assay": "TF isoform mRNA expression (RT-PCR)",
  "description": "For inhibition experiments, HMEC-1 endothelial cells were switched to EC basal medium (without fetal calf serum) for 1 hr. […] Analysis of the TF isoform mRNA expression was done 1 hr post stimulation with TNF-α and assessment of the phosphorylation state of SR proteins by western blotting was performed 2 min post induction of the cells. Positive controls were stimulated only with TNF-α, and negative controls were untreated.",
  "data": [
    {"smiles": "CCOC(=O)c1c(/C(C#N)=C\\N)c2ccc(Cl)c(Cl)c2n1C", "note": "[KH-CB19, (E)-Ethyl 3-(2-Amino-1-Cyanovinyl)-6,7-Dichloro-1-Methyl-1H-Indole-2-Carboxylate]", "values": [
      {"measurement": "TNF-α-induced mRNA expression of flTF and asHTF", "setting": "HMEC-1, 10 μM inhibitor, 10 ng/ml TNF-α, 1 hr post stimulation", "value": "lowered TNF-α-induced expression of both TF mRNA splice variants to baseline"},
      {"measurement": "Basal mRNA expression of flTF and asHTF", "setting": "resting HMEC-1, 10 μM inhibitor", "value": "significantly reduced the basal expression of flTF as well as asHTF"}
    ]}
  ]
}
